According to article PMC9025810, “Interaction of Antifungal Drugs with CYP3A- and OATP1B-Mediated Venetoclax Elimination” (Pharmaceutics, 2022):
Like-named read-outs stand apart in the source and are kept apart here. *1 amine or outer side, *2 acyl side, *3 side chain or, on linkers, in order; H or OH if unused. Where a SMILES comes first, the peptide text is derived from it. Bridges are numbered along the chain shown (N, C = ends). [ ]: non-standard residue; d: D form. The star is where a group is joined. hTyr(3S-OH,4S-OH,3'-OSO3H) = N[C@H](C(=O)O)[C@H](O)[C@@H](O)c1ccc(O)c(OS(=O)(=O)O)c1; pTerphenylCO(4''-OnC5H11) = CCCCCOc1ccc(-c2ccc(-c3ccc(C(=O)*)cc3)cc2)cc1; Orn(4R-OH,5R-OH) = O=C([C@H](C[C@@H](O)[C@@H](O)N[*:3])N[*:1])[*:2]; hTyr(3S-OH,4S-OH) = N[C@H](C(=O)O)[C@H](O)[C@@H](O)c1ccc(O)cc1; Pro(3S-OH,4S-Me) = C[C@H]1CN[C@H](C(=O)O)[C@H]1O; X1 = CCCCCOc1ccc(-c2cc(-c3ccc(C(=O)*)cc3)no2)cc1; Gln(3R-OH) = NC(=O)C[C@@H](O)[C@H](N)C(=O)O; Hyp = O=C(O)[C@@H]1C[C@@H](O)CN1

Key:
[1] = target: T1, OATP1B1 (Homo sapiens, UniProt Q9Y6L6); test: Inhibition of OATP1B1-mediated [3H]EβG uptake in HEK293 cells; details: for IC50: 0.2 µM EβG, 15 min pre-incubation + 15 min co-incubation; for OATP1B1 inhibitory potency compared with parent drug itraconazole: EβG uptake
T1 sequence (Q9Y6L6 1-691): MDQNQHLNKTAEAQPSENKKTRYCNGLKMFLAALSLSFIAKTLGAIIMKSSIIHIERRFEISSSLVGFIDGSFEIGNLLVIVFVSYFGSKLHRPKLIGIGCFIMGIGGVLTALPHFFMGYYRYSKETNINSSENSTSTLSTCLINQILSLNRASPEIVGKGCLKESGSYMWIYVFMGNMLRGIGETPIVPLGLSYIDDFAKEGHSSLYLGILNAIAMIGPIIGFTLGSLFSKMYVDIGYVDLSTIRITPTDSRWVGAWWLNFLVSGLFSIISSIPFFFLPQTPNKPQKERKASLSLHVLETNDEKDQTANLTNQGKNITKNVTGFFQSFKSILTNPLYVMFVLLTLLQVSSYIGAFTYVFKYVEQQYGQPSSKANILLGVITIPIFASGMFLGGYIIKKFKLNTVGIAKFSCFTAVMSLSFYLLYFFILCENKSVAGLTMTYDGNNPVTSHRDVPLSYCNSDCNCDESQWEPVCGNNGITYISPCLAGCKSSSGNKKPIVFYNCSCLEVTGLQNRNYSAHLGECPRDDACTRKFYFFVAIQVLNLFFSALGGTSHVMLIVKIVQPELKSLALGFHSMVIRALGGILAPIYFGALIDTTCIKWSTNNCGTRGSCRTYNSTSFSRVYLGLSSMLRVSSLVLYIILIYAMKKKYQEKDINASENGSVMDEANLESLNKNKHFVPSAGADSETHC
Experimental: (§1) In brief, radioactive uptake assays were performed utilizing HEK293 cell lines stably expressing OATP1B1 or OATP1B2, or cells expressing the respective vector control (VC) [17, 18]. […] Cells were cultured in Dulbecco’s Modified Eagle Medium (DMEM; Invitrogen) supplemented with 10% FBS; the media for cells expressing OATP1B1 or VC was supplemented with hygromycin B (25 mg/mL; Invitrogen), and blasticidin (37.5 mg/mL; Biovision).
(§2) For inhibition experiments, cells were seeded in 12- or 24-well plates in phenol red-free media and were incubated at 37 °C for 24 h; cells overexpressing OATP1B1 or VC were incubated with doxycycline (1 µg/mL) for 24 h. Cells were washed with warm PBS and pre-incubated with the indicated concentrations of each potential inhibitor (or an equal volume of vehicle) in phenol red-free DMEM (without FBS and supplements) at 37 °C for 15 min. […] The experiment was terminated by washing three times with ice-cold PBS. Cells were lysed with 1 N NaOH overnight at 4 °C, and the solution was neutralized with 2 M HCl. […] The OATP1B-mediated uptake was calculated by dividing the disintegrations per minute (dpm) from each replicate by the amount of protein (mg) and subtracting the dpm/mg protein in the VC cell line. The OATP1B1-mediated uptake at each concentration of each antifungal drug was then compared with the OATP1B1-mediated uptake when only an equal volume of vehicle (water or DMSO) was added without the antifungal drug.

[2] = target: T2, OATP1B2 (Mus musculus, UniProt Q9JJL3); test: Inhibition of OATP1B2-mediated [3H]EβG uptake in HEK293 cells
T2 sequence (Q9JJL3 1-689): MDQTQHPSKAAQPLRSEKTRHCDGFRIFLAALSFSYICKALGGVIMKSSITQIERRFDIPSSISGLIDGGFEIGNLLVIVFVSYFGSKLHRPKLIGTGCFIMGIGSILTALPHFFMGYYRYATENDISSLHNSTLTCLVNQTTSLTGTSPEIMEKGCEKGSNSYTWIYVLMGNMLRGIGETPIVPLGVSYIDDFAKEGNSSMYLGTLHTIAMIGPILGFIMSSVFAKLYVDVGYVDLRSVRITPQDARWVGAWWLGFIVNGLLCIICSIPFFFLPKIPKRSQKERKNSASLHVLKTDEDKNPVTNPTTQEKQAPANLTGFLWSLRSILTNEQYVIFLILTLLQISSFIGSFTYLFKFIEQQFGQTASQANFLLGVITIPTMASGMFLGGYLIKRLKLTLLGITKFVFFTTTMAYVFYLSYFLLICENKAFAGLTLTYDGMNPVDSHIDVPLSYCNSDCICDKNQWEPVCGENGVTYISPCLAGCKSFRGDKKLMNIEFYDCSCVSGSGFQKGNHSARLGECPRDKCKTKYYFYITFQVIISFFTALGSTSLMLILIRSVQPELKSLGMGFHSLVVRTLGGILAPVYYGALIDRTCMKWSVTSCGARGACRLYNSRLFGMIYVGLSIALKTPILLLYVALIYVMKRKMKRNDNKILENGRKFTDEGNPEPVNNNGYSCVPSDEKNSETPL
Experimental: as §1, §2

[3] = target: T1, OATP1B1; test: In vitro to in vivo extrapolation (FDA basic models: Cmax,ss/IC50 and R value); details: FDA 2020 guidance Equation (2), >1.1 indicates potential to inhibit in vivo
From the text: In brief, we utilized the equation Cmax,ss/IC50. To use this equation, we identified the mean total peak concentration at the steady-state of each potential inhibitor (Cmax,ss) from the published literature on the clinical pharmacokinetics of each agent (Supplementary Table S2). We then divided Cmax,ss by the IC50 of the respective agents. (1) CMax,ss/IC50
As indicated by the FDA guidelines, values of >0.1 indicate the potential for a clinically relevant interaction.
To utilize this equation, we used the previously determined Cmax,ss (Supplementary Table S2). Where necessary, the molar weight was used to convert the dose or Cmax,ss to µM. We determined the unbound fraction in plasma (fup) for each drug from publicly available literature. […] As recommended by the FDA guidelines, the fraction absorbed (Fa) and intestinal availability (Fg) were set to 1, fup was set to 1% when reported to be less than 1%, and the absorption constant (ka) was set to 0.1 min^−1 (as a worst-case estimate).

[4] = target: T1, OATP1B1; test: Radioactive uptake and membrane/intracellular fractionation in cells overexpressing OATP1B1 or vector; format: cell-based; design: expressed in transfected cells; details: 0.2 µM EβG or 1 µM venetoclax, 15 min
Experimental: For experiments seeking to directly determine if venetoclax is an OATP1B1 substrate, cells overexpressing OATP1B1 or VC were seeded in six-well plates in phenol red-free DMEM containing 10% FBS and doxycycline (1 µg/mL) for 24 h. […] Cells were then immediately lysed with 1 mL of 1 N NaOH for 4 h on an orbital shaker at room temperature to measure total radioactivity. Alternatively, cells were trypsinized with 200 µL of TrypLE (Thermo Fisher Scientific, Waltham, MA, USA) for 3–5 min, rinsed with 800 µL of ice-cold washing buffer, and ProteoExtract Native Membrane Protein Extraction Kits (EMD Millipore, Burlington, MA, USA) were used to separate membrane and intracellular fractions. Dissociated cells were then transferred to 1.5-mL Eppendorf tubes. For measurement of total radioactivity, cells were neutralized with 500 µL of 2 M HCl after 4 h. For measurement of total radioactivity in the membrane or intracellular fraction, cells were isolated following the manufacturer’s protocol, as we have reported previously; this procedure is based on a differential extraction procedure under non-denaturing conditions.

[5] = system: OATP1B1; design: method as in PMID 27273149; details: previous data, weak inhibition; cited from earlier work
[6] = cited from earlier work
[7] = target: T1, OATP1B1; test: Competitive counterflow assay with 8-acetoxy-trisulfopyrene; format: cell-based; design: expressed in transfected cells; details: 5 µM ACE; venetoclax 200 µM, cyclosporin A 10 µM, paraformaldehyde 0.5%; 20 min
Experimental: Competitive counterflow assays were performed with 8-acetoxy-trisulfopyrene, an activatable fluorogenic probe for OATP1B1, as described previously. In brief, cells expressing a vector or OATP1B1 were seeded in 96-well opaque plates in phenol-red free DMEM media with 10% FBS and induced with doxycycline for 24 h. On the day of the experiment, the media was removed, and the cells were washed three times with warm PBS. The cells were then incubated for 20 min at 37 °C with 100 µL of 5 µM 8-acetoxypyrene-1,3,6-trisulfonate uptake buffer (ACE; 125 mM NaCl, 4.8 mM KCl, 1.2 mM CaCl2, 1.2 mM KH2PO4, […], 25 mM 2-N-morpholino), ethanesulfonic acid, and 5.6 mM glucose, with the pH adjusted to 5.5). […] The fluorescence was measured at excitation and emission wavelengths of 460 nm and 510 nm, respectively, after 20 min of incubation to control for the number of cells.
The plates were incubated for 20 min at 37 °C. In the final step, the supernatant was removed, and the cells were washed three times with 200 µL ice-cold PBS to stop the reaction. PBS was then removed and 200 µL of 0.1 N NaOH was added to each well to normalize the pH. The fluorescence was measured as described above after another 20 min incubation at room temperature. The levels of cell dye were reported as a percent of the measurement from cells containing ACE alone.

[8] = OATP1B2 IC50, HEK293 cells, 0.2 µM EβG, 15 min pre-incubation + 15 min co-incubation

Row | Compound | IC50 ([1]; OATP1B1 IC50, HEK293 cells) [µM] | IC50 [2, 8] [µM] | R value [3] | other results
1 | CCCCCOc1ccc(-c2ccc(-c3ccc(C(=O)N[C@H]4C[C@@H](O)[C@@H](O)NC(=O)[C@@H]5[C@@H](O)[C@@H](C)CN5C(=O)[C@H]([C@@H](C)O)NC(=O)[C@H]([C@H](O)[C@@H](O)c5ccc(O)cc5)NC(=O)[C@@H]5C[C@@H](O)CN5C(=O)[C@H]([C@@H](C)O)NC4=O)cc3)cc2)cc1 [Anidulafungin] ({pTerphenylCO(4''-OnC5H11)}-[Orn(4R-OH,5R-OH)]T[Hyp][hTyr(3S-OH,4S-OH)]T[Pro(3S-OH,4S-Me)]; lactam 1-C) | 42 |  |  | 
2 | CC[C@H](C)C[C@H](C)CCCCCCCCC(=O)N[C@H]1C[C@@H](O)[C@@H](NCCN)NC(=O)[C@@H]2[C@@H](O)CCN2C(=O)[C@H]([C@H](O)CCN)NC(=O)[C@H]([C@H](O)[C@@H](O)c2ccc(O)cc2)NC(=O)[C@@H]2C[C@@H](O)CN2C(=O)[C@H]([C@@H](C)O)NC1=O [Caspofungin] | 9.2 | > 100 |  | 
3 | CC(C)c1nc(CN(C)C(=O)N[C@@H](CCN2CCOCC2)C(=O)N[C@H](CC[C@H](Cc2ccccc2)NC(=O)OCc2cncs2)Cc2ccccc2)cs1 [Cobicistat] | 0.31 | 0.7 | > 1.1 | 
4 | C[C@]12CC[C@@H]3c4ccc(O)cc4CC[C@H]3[C@@H]1CC[C@@H]2O[C@@H]1O[C@H](C(=O)O)[C@@H](O)[C@H](O)[C@H]1O [EβG, Estradiol-17β-D-glucuronide] |  |  |  | Uptake in the intracellular fraction with overexpression of OATP1B1 versus vector [4]: significant increases
5 | OC(Cn1cncn1)(Cn1cncn1)c1ccc(F)cc1F [Fluconazole] | 4100 | > 5000 |  | 
6 | CC(O)C(C)n1ncn(-c2ccc(N3CCN(c4ccc(OCC5COC(Cn6cncn6)(c6ccc(Cl)cc6Cl)O5)cc4)CC3)cc2)c1=O (stereo not shown) [Hydroxy-ITZ, hydroxy-itraconazole] | 3.5 | > 2 |  | OATP1B1 inhibitory potency compared with parent drug itraconazole ([1]; HEK293 cells): more potent inhibitors of OATP1B1 than the parent drug
7 | C[C@@H](c1nc(-c2ccc(C#N)cc2)cs1)[C@](O)(Cn1cncn1)c1cc(F)ccc1F [Isavuconazole] | 2.5 | 2.5 | > 1.1 | IC50 [5]: > 10 µM
8 | CCC(C)n1ncn(-c2ccc(N3CCN(c4ccc(OCC5COC(Cn6cncn6)(c6ccc(Cl)cc6Cl)O5)cc4)CC3)cc2)c1=O (stereo not shown) [Itraconazole] | 37 | > 50 |  | 
9 | CC(=O)C(C)n1ncn(-c2ccc(N3CCN(c4ccc(OC[C@H]5CO[C@](Cn6cncn6)(c6ccc(Cl)cc6Cl)O5)cc4)CC3)cc2)c1=O (stereo partly shown) [Keto-ITZ, keto-itraconazole] |  |  |  | OATP1B1 inhibitory potency compared with parent drug itraconazole ([1]; HEK293 cells): more potent inhibitors of OATP1B1 than the parent drug; IC50 ([1]; read-out: OATP1B1 IC50, HEK293 cells): 8.3 µM
10 | CC(=O)N1CCN(c2ccc(OCC3COC(Cn4ccnc4)(c4ccc(Cl)cc4Cl)O3)cc2)CC1 (stereo not shown) [Ketoconazole] | 1.5 | 2.2 |  | Fraction Unbound (fup) [6]: 3.2%
11 | CCCCCOc1ccc(-c2cc(-c3ccc(C(=O)N[C@H]4C[C@@H](O)[C@@H](O)NC(=O)[C@@H]5[C@@H](O)[C@@H](C)CN5C(=O)[C@H]([C@H](O)CC(N)=O)NC(=O)[C@H]([C@H](O)[C@@H](O)c5ccc(O)c(OS(=O)(=O)O)c5)NC(=O)[C@@H]5C[C@@H](O)CN5C(=O)[C@H]([C@@H](C)O)NC4=O)cc3)no2)cc1 [Micafungin] (X1-[Orn(4R-OH,5R-OH)]T[Hyp][hTyr(3S-OH,4S-OH,3'-OSO3H)][Gln(3R-OH)][Pro(3S-OH,4S-Me)]; lactam 1-C) | 2.1 | 4.9 | > 1.1 | 
12 | CC[C@@H]([C@H](C)O)n1ncn(-c2ccc(N3CCN(c4ccc(OC[C@@H]5CO[C@@](Cn6cncn6)(c6ccc(F)cc6F)C5)cc4)CC3)cc2)c1=O [Posaconazole] | 1.9 | > 80 | > 1.1 | IC50 ([2]; IC50 (Figure S7, Relative OATP1B2 Function), HEK293 cells expressing OATP1B2, EβG uptake, value printed in figure panel): > 100 µM; IC50 at 15 min ([2]; mouse, HEK293 cells stably expressing OATP1B2, probe [3H]EβG, 0.2 µM, OATP1B2 IC50, HEK293 cells, 0.2 µM EβG, 15 min pre-incubation + 15 min co-incubation): > 20 µM
13 | CO[C@H]1/C=C/O[C@@]2(C)Oc3c(C)c(O)c4c(O)c(c(/C=N/N5CCN(C)CC5)c(O)c4c3C2=O)NC(=O)/C(C)=C\C=C\[C@H](C)[C@H](O)[C@@H](C)[C@@H](O)[C@@H](C)[C@H](OC(C)=O)[C@@H]1C [Rifampin] | < 3 | 2.1 | > 1.1 | 
14 | C[C@@H](c1ncncc1F)[C@](O)(Cn1cncn1)c1ccc(F)cc1F [Voriconazole] | 80 | > 200 |  | 
15 | paraformaldehyde |  |  |  | Effect on fluorescence (cell dye level) in competitive counterflow [7]: did not decrease fluorescence
